Results taken from the supplement of paper PMC10307832.

Tests used:
Test in all cases: relative viability (nuclei count vs DMSO), 5 days (fraction); higher = more cells survive
CX-5461 + Foretinib = compound: Cc1cnc(CNC(=O)c2c(=O)c3ccc(N4CCCN(C)CC4)nc3n3c2sc2ccccc23)cn1 [CX-5461] + COc1cc2c(Oc3ccc(NC(=O)C4(C(=O)Nc5ccc(F)cc5)CC4)cc3F)ccnc2cc1OCCCN1CCOCC1 [Foretinib] (partner 0.25 µM)
Outline: (§1)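 The day after seeding in 1536-well plates, lung cancer cell lines were treated by pin tool with a single drug, or with a fixed anchor-drug dose together with five library-drug doses (not always all listed) in √10 steps. After 5 days, a combined fix-and-stain solution (final 0.05% Triton X-100, 1% formaldehyde, 1 ug/ml Hoechst) was added. Nuclei counted on 4× images gave relative viability as treated counts over vehicle counts, reported as the median of duplicate plates.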

IMD-0354 + OSI-027 = compound: O=C(Nc1cc(C(F)(F)F)cc(C(F)(F)F)c1)c1cc(Cl)ccc1O [IMD-0354] + COc1cccc2cc(-c3nc([C@H]4CC[C@H](C(=O)O)CC4)n4ncnc(N)c34)[nH]c12 [OSI-027] (partner 0.5 µM)
Outline: as §1

IMD-0354 + AZD7762 = compound: O=C(Nc1cc(C(F)(F)F)cc(C(F)(F)F)c1)c1cc(Cl)ccc1O [IMD-0354] + NC(=O)Nc1cc(-c2cccc(F)c2)sc1C(=O)N[C@H]1CCCNC1 [AZD7762] (partner 0.2 µM)
Outline: as §1

CX-5461 + Lapatinib = compound: Cc1cnc(CNC(=O)c2c(=O)c3ccc(N4CCCN(C)CC4)nc3n3c2sc2ccccc23)cn1 [CX-5461] + CS(=O)(=O)CCNCc1ccc(-c2ccc3ncnc(Nc4ccc(OCc5cccc(F)c5)c(Cl)c4)c3c2)o1 [Lapatinib] (partner 2 µM)
Outline: as §1

Cell Line | relative viability (CX-5461 + Foretinib; first compound 0.01 µM) | relative viability (CX-5461 + Foretinib; first compound 0.03162 µM) | relative viability (CX-5461 + Foretinib; first compound 0.1 µM) | relative viability (CX-5461 + Foretinib; first compound 0.3162 µM) | relative viability (CX-5461 + Foretinib; first compound 1 µM) | relative viability (IMD-0354 + OSI-027; first compound 0.04 µM) | relative viability (IMD-0354 + OSI-027; first compound 0.1265 µM) | relative viability (IMD-0354 + OSI-027; first compound 0.4 µM) | relative viability (IMD-0354 + OSI-027; first compound 1.265 µM) | relative viability (IMD-0354 + OSI-027; first compound 4 µM) | relative viability (IMD-0354 + AZD7762; first compound 0.04 µM) | relative viability (IMD-0354 + AZD7762; first compound 0.1265 µM) | relative viability (IMD-0354 + AZD7762; first compound 0.4 µM) | relative viability (IMD-0354 + AZD7762; first compound 1.265 µM) | relative viability (IMD-0354 + AZD7762; first compound 4 µM) | relative viability (CX-5461 + Lapatinib; first compound 0.01 µM) | relative viability (CX-5461 + Lapatinib; first compound 0.03162 µM) | relative viability (CX-5461 + Lapatinib; first compound 0.1 µM) | relative viability (CX-5461 + Lapatinib; first compound 0.3162 µM) | relative viability (CX-5461 + Lapatinib; first compound 1 µM)
HCC-827 | 1.08 | 1.09 | 1.02 | 1.03 | 1.06 | 0.67 | 0.693 | 0.621 | 0.225 | 0.196 | 0.204 | 0.239 | 0.215 | 0.183 | 0.153 | 0.198 | 0.223 | 0.22 | 0.203 | 0.19
HOP-62 | 1.09 | 1.14 | 1.08 | 1.01 | 1.04 | 0.954 | 0.782 | 0.516 | 0.295 | 0.204 | 0.741 | 0.977 | 0.473 | 0.327 | 0.176 | 1.11 | 1.12 | 1.23 | 0.167 | 0.908
LC-2-ad | 0.919 | 1.01 | 0.835 | 0.88 | 0.504 | 0.827 | 0.852 | 0.441 | 0.298 | 0.193 | 0.902 | 0.85 | 0.504 | 0.15 | 0.24 | 0.971 | 1.02 | 0.816 | 0.685 | 0.476
LCLC-97TM1 | 0.953 | 1.02 | 1 |  | 0.975 | 0.519 | 0.489 | 0.265 | 0.186 | 0.148 | 0.315 | 0.449 | 0.222 | 0.185 | 0.128 | 1.17 | 1.02 | 0.871 |  | 0.366
LK-2 | 1.17 | 0.942 | 1.26 |  | 1.24 | 0.193 | 0.198 | 0.235 | 0.19 | 0.215 | 0.251 | 0.39 |  | 0.105 | 0.172 |  | 1.06 | 1.01 |  | 0.817
LOU-NH91 | 1.02 | 1.02 | 0.935 |  | 0.942 | 0.77 | 0.692 | 0.335 | 0.27 | 0.198 | 0.827 | 0.672 | 0.284 | 0.151 | 0.266 | 0.63 | 0.811 | 0.747 | 0.442 | 0.68
LU99A | 0.818 | 0.797 | 0.764 | 0.495 | 0.798 | 0.351 | 0.286 | 0.246 | 0.259 | 0.196 | 0.246 | 0.393 | 0.332 | 0.185 | 0.151 | 0.859 | 1.02 | 0.86 | 0.56 | 0.213
LXF-289 | 0.998 | 1.02 | 0.974 | 0.402 | 0.902 | 0.871 | 0.772 | 0.492 | 0.34 | 0.115 | 1.07 | 1.09 | 0.866 | 0.345 | 0.133 | 0.897 | 0.936 | 0.947 | 0.602 | 0.487
NCI-H23 | 0.874 | 1.15 | 0.98 | 0.938 | 1.08 | 0.538 | 0.631 | 0.341 | 0.195 | 0.19 | 0.252 | 0.253 | 0.229 | 0.13 | 0.222 | 1.15 | 1.19 | 0.82 | 0.266 | 0.362
NCI-H322M | 0.834 | 0.995 | 0.937 | 0.394 | 0.7 | 0.612 | 0.493 | 0.427 | 0.285 | 0.33 | 0.566 | 0.548 | 0.48 | 0.268 | 0.479 | 0.552 | 0.564 | 0.644 |  | 0.655
NCI-H358 | 0.671 | 0.666 | 0.791 | 0.236 | 0.336 | 0.676 | 0.826 | 0.403 | 0.124 | 0.141 | 0.591 | 0.433 | 0.384 | 0.245 | 0.255 | 0.389 | 0.447 | 0.392 | 0.267 | 0.306
NCI-H460 | 0.912 | 0.955 |  | 1.04 | 0.0917 | 0.886 | 0.626 | 0.225 | 0.0286 | 0.0262 | 0.649 | 0.756 | 0.301 | 0.0985 | 0.0595 | 1.17 | 1.11 | 0.23 | 0.0503 | 0.0174
NCI-H596 | 0.896 | 1.18 | 0.888 | 1.03 | 0.97 | 0.881 | 0.812 | 0.429 | 0.793 | 0.246 | 0.906 | 0.959 | 0.877 | 0.519 | 0.551 | 1.07 | 1.09 | 0.96 | 1.1 | 0.628
NCI-H647 | 1.21 | 1.25 | 1.26 | 1.05 | 1 | 0.836 | 0.599 | 0.367 | 0.364 | 0.0879 | 0.707 | 0.531 | 0.309 | 0.0742 | 0.159 | 1.24 | 1.1 | 1.01 | 0.949 | 0.226
NCI-H650 | 1.07 | 1.02 | 1.01 | 0.977 | 0.932 | 0.591 | 0.498 | 0.447 | 0.29 | 0.177 | 0.926 | 1.01 | 0.822 | 0.566 | 0.174 | 0.94 | 1.01 | 0.915 | 0.312 | 0.934
NCI-H727 | 0.96 | 1.14 | 0.949 | 0.722 | 0.837 | 0.93 | 0.585 | 0.415 | 0.395 | 0.312 | 0.589 | 0.727 | 0.484 | 0.44 | 0.398 | 0.862 | 0.997 | 0.682 | 0.729 | 0.631
NCI-H838 | 1.11 | 1.1 | 1.16 |  | 0.931 | 0.422 | 0.334 | 0.294 | 0.209 | 0.211 | 0.981 | 0.9 | 0.68 | 0.714 | 0.688 | 1.17 | 1.11 | 1.05 | 0.252 | 0.6
NCI-H1355 | 1.03 | 1.01 | 1.01 | 0.943 | 0.95 | 0.382 | 0.45 | 0.372 | 0.258 | 0.234 | 0.813 | 0.914 | 0.622 | 0.494 | 0.23 | 1.03 | 0.976 | 1.15 | 0.293 | 0.785
NCI-H1395 | 0.959 | 0.916 | 0.884 | 0.988 | 0.737 | 0.69 | 0.755 | 0.651 | 0.43 | 0.256 | 0.394 | 0.427 | 0.383 | 0.319 | 0.384 | 0.955 | 0.899 | 0.716 | 0.571 | 0.563
NCI-H1437 | 1.25 | 1.26 |  | 1.23 | 1.18 | 0.915 | 0.763 | 0.544 | 0.22 | 0.25 | 1.12 | 1.09 | 0.755 | 0.247 | 0.297 | 0.779 | 0.869 |  | 0.519 | 0.528
NCI-H1651 | 0.734 | 0.55 |  | 0.598 | 0.168 | 0.667 | 0.667 | 0.495 | 0.199 | 0.0772 | 0.468 | 0.504 | 0.422 | 0.161 | 0.14 |  | 0.482 |  | 0.714 | 0.117
NCI-H1666 | 1.02 | 0.969 | 0.962 | 0.916 | 0.692 | 0.86 | 0.841 | 0.641 | 0.415 | 0.302 | 0.777 | 0.957 | 0.689 | 0.623 | 0.467 | 0.733 | 0.637 |  | 0.55 | 0.398
NCI-H1734 | 0.88 | 0.878 | 0.941 | 0.634 | 0.758 | 0.625 | 0.662 | 0.44 | 0.281 | 0.137 | 0.573 | 0.565 | 0.417 | 0.198 | 0.152 | 1.08 | 1.12 | 0.951 | 0.553 | 0.523
NCI-H1755 | 0.934 | 0.905 | 0.889 | 0.913 | 0.898 | 0.65 | 0.782 | 0.528 | 0.354 | 0.302 | 0.412 | 0.546 | 0.344 | 0.365 | 0.274 | 1.05 | 1.03 | 1.06 | 0.531 | 0.972
NCI-H1793 | 0.8 | 0.734 | 0.665 |  | 0.802 | 0.319 | 0.293 | 0.161 | 0.165 | 0.131 | 0.592 | 0.542 | 0.337 | 0.181 | 0.205 | 0.693 | 0.628 | 0.819 | 0.399 | 0.643
NCI-H1915 | 1.14 | 1.07 | 1.09 | 1.08 | 1.05 | 0.589 | 0.629 | 0.107 | 0.241 | 0.155 | 0.666 | 0.694 | 0.58 | 0.507 | 0.149 | 1.01 | 1.06 | 0.99 | 0.379 | 1.04
NCI-H1944 | 0.849 | 0.913 | 0.897 | 0.47 | 0.822 | 0.441 | 0.445 | 0.375 | 0.317 | 0.161 | 0.433 | 0.541 | 0.488 | 0.321 | 0.156 | 0.777 | 0.981 | 0.806 |  | 0.655
